Reference: patent US20130096100A1, “DI(ARYLAMINO)ARYL COMPOUND” (ASTELLAS PHARMA INC., priority 2007, published 2013)

Columns and labels:
[1] = biological target: T1, EML4-ALK fusion protein v1 (Homo sapiens, UniProt Q9UM73, D1529E/I1461V/K1491R); assay: Inhibitory activity against the kinase activity of EML4-ALK fusion protein v1 (Test Example 1); format: biochemical; details: ATP 100 μM, reaction 1 hour, HTRF KinEASE-TK
T1 construct: FLAG (N); made in house
Method: EML4-ALK fusion protein v1 (purified from BA/F3 cells expressing EML4-ALK fusion protein v1) was investigated for its phosphorylation activity toward a peptide substrate by using a kinase activity detection kit (HTRF KinEASE-TK; Cisbio Inc.). […] The ATP concentration used was 100 μM. Another reaction solution was prepared to contain the enzyme protein but no test compound (in which the solvent DMSO alone was added at 0.4% in place of the test compound), followed by reaction in the same manner with or without ATP addition. […] The concentration causing 50% inhibition (IC50) was calculated for each test compound by the logistic regression method.
N-terminally FLAG-tagged EML4-ALK fusion protein v1 was inserted into a vector pMX-iresCD8 capable of co-expression of insert cDNA and cell surface antigen CD8 (J. Biol. Chem., 2001, vol. 276, p. 39012-39020) to create a vector FLAG-EML4-ALKv1/pMX-iresCD8 expressing both FLAG-EML4-ALKv1 and CD8. FLAG-EML4-ALKv1/pMX-iresCD8 was used to create a recombinant retrovirus in the same manner as described above and infected into mouse lymphoid cell line BA/F3 cells. Using a magnetic bead reagent for cell separation and a purification column (anti-CD8 monoclonal antibody immobilized on magnetic beads and a MiniMACS purification column; both are products of Miltenyi Biotec Inc.), cell surface CD8-expressing cells were purified conveniently. […] After washing 3 times with PBS, the cells were lysed in a lysis solution (50 mM Tris.HCl (pH 7.4), 150 mM NaCl, 1% Triton X100, 5 mM EDTA, 5 mM EGTA, 1 mM NaVO4, 1 mM DTT and protease inhibitor cocktail complete). The EML4-ALK fusion protein v1 present in the supernatant obtained after centrifugation was purified using ANTI-FLAG M2 Affinity Gel (SIGMA-ALDRICH Inc.) according to the method described in the product information document.
The EML4-ALK fusion protein v1 purified as above was investigated for its phosphorylation activity toward a peptide substrate using a kinase activity detection kit (HTRF KinEASE-TK; Cisbio Inc.). Using TK substrate 1, which was included in the kit, as the substrate, and after adding no ATP or 100 μM ATP, the mixtures were reacted at room temperature for 1 hour, and the count of HTRF was detected as recommended by the Kits manufacturer.

[2] = Toxicity test in rats, 7-day repeated oral administration (Test Example 5); format: in vivo, SD rats; details: 7 days; for Non-toxic dose: oral; for Dose: Bone marrow inhibition / Dose: Exacerbation of common symptoms / Dose: Moribund condition: SD, rat, in vivo, po
Description: Test compounds were each suspended in a 0.5% aqueous methylcellulose solution and repeatedly administered to SD rats (two females and four males in each group) by the oral route at each dose for 7 days.

[3] = biological target: T2, MER (Homo sapiens, UniProt Q12866); assay: Kinase inhibition profiling, MER (Test Example 6); format: biochemical; details: 100 nM; read-out: inhibitory activity against MER
T2 construct: purchased Carna Biosciences Inc., Japan (contract measurement)
T2 sequence (Q12866 21-999): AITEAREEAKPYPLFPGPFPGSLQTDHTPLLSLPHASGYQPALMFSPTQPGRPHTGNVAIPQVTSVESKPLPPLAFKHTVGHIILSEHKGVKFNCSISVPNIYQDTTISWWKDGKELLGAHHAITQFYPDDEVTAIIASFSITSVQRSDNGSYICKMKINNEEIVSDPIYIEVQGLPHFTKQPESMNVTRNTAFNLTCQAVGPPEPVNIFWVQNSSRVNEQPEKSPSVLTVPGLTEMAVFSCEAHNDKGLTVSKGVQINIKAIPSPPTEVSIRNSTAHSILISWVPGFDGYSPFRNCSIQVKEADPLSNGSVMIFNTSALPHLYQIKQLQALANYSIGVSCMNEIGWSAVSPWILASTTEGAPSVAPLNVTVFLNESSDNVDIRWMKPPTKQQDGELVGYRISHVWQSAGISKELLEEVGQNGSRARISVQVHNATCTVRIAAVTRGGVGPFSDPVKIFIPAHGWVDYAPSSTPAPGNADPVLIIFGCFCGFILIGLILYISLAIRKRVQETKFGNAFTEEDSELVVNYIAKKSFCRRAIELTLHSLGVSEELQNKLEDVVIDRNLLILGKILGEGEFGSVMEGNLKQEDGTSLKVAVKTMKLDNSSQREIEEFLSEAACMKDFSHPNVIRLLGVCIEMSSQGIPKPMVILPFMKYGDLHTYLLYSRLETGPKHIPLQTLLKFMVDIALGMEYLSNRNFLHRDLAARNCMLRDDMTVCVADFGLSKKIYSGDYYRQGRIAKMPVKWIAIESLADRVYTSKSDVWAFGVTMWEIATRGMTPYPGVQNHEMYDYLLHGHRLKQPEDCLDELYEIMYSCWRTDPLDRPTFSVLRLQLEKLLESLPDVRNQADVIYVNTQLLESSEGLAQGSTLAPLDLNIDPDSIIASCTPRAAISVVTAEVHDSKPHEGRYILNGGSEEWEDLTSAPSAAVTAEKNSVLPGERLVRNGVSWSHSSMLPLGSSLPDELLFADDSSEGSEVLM

[4] = biological target: T3, PHKG1 (Homo sapiens, UniProt Q16816); assay: Kinase inhibition profiling, PHKG1 (Test Example 6); format: biochemical; details: 100 nM; read-out: inhibitory activity against PHKG1
T3 construct: purchased Carna Biosciences Inc., Japan (contract measurement)

[5] = biological target: T4, MNK1 (Homo sapiens, UniProt Q9BUB5); assay: Kinase inhibition profiling, MNK1 (Test Example 6); format: biochemical; details: 100 nM; read-out: inhibitory activity against MNK1
T4 construct: purchased Carna Biosciences Inc., Japan (contract measurement)

[6] = biological target: T5, MNK2 (Homo sapiens, UniProt Q9HBH9); assay: Kinase inhibition profiling, MNK2 (Test Example 6); format: biochemical; details: 100 nM; read-out: inhibitory activity against MNK2
T5 construct: purchased Carna Biosciences Inc., Japan (contract measurement)
T5 sequence (Q9HBH9 whole entry): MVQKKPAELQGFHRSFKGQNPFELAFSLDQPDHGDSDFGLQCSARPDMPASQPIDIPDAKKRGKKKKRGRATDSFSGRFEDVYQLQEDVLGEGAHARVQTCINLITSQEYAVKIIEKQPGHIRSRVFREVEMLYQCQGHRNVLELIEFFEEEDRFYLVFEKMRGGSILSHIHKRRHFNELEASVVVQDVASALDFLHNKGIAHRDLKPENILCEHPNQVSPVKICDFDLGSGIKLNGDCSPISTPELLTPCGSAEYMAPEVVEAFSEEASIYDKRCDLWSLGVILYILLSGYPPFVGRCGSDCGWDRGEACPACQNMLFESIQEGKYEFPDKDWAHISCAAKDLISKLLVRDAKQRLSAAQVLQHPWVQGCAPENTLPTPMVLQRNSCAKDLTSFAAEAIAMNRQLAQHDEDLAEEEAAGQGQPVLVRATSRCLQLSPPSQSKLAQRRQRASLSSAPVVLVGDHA

T1 sequence (Q9UM73 with tags, fused parts or gaps I1461V/K1491R/D1529E): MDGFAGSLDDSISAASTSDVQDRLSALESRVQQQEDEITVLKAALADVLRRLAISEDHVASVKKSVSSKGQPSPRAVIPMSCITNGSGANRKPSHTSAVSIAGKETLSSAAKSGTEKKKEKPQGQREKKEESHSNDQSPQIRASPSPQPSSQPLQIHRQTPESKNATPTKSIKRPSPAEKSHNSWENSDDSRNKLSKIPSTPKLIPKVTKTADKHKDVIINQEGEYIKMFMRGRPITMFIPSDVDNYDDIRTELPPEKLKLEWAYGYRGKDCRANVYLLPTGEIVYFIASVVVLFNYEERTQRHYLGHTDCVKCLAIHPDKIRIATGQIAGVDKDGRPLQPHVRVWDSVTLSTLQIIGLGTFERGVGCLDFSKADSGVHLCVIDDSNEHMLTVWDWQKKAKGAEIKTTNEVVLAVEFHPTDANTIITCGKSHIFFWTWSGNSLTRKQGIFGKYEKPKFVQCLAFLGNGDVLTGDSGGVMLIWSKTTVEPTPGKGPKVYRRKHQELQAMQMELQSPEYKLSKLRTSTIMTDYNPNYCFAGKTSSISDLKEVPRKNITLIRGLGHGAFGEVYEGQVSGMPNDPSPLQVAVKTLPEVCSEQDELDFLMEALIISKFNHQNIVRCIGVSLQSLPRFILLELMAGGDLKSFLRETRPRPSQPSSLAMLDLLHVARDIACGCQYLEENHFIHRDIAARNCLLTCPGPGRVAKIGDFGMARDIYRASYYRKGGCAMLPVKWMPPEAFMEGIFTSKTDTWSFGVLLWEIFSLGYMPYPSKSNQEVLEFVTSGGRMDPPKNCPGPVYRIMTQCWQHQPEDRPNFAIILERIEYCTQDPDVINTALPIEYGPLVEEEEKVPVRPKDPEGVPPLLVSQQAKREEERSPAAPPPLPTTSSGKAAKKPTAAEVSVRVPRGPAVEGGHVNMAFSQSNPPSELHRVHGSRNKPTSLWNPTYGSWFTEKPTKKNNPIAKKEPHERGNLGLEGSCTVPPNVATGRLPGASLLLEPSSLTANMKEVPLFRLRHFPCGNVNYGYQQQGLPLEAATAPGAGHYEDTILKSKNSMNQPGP
T4 sequence (Q9BUB5 whole entry): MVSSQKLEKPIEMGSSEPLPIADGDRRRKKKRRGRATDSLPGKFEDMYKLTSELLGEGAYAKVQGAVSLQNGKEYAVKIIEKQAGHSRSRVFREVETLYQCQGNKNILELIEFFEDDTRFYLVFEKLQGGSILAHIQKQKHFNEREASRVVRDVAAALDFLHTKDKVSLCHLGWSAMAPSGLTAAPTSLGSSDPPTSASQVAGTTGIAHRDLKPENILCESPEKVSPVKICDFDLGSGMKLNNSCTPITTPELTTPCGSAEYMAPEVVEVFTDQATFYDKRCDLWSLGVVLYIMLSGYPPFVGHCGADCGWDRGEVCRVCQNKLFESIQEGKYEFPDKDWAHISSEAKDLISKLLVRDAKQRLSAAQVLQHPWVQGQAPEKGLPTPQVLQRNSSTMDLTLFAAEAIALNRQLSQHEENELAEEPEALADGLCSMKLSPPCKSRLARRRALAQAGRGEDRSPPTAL
T3 sequence (Q16816 whole entry): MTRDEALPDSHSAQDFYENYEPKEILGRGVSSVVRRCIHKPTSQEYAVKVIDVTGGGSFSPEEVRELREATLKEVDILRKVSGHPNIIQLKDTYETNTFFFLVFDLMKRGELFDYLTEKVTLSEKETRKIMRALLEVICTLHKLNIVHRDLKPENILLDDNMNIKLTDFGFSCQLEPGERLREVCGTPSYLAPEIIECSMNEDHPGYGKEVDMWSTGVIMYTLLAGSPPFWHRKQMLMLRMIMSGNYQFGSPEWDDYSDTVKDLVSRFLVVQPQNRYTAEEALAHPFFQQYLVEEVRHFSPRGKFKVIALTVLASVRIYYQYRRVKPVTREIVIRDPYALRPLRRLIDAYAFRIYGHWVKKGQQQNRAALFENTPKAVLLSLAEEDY

| SMILES | IC50 [1] [nM] | Non-toxic dose ([2]; female SD rats (2 rats)) [mg/kg] | Dose: Bone marrow inhibition ([2]; female) [mg/kg] | Dose: Exacerbation of common symptoms ([2]; female) | Dose: Moribund condition ([2]; female) | Non-toxic dose ([2]; male SD rats (4 rats)) [mg/kg] | Dose: Bone marrow inhibition ([2]; male) [mg/kg] | Dose: Exacerbation of common symptoms ([2]; male) | Dose: Moribund condition ([2]; male) | inhibition at 0.1 µM [3] [%] | inhibition at 0.1 µM [4] [%] | inhibition at 0.1 µM [5] [%] | inhibition at 0.1 µM [6] [%] |
| --- | --- | --- | --- | --- | --- | --- | --- | --- | --- | --- | --- | --- | --- |
| CCNS(=O)(=O)c1ccccc1Nc1ncnc(Nc2ccc(N3CCC(N4CCN(C)CC4)CC3)cc2OC)n1 [Example 123] | 33 |  |  |  |  |  |  |  |  |  |  |  |  |
| COc1cc(N2CCC(N3CCN(C)CC3)CC2)ccc1Nc1ncnc(Nc2ccccc2S(=O)(=O)C(C)C)n1 [Example 23] | 17 | 10 | 100 | (>300) mg/kg | (>300) mg/kg | 10 | 100 | (>300) mg/kg | (>300) mg/kg | < 20 | < 20 | 60 | 80 |
